From article PMC6915728 (Nature Communications, 2019)

Tests used:
E. coli BW25113 ΔmlaD = assay: MIC, serial broth dilution, mlaD knockout strain vs wild type; type: cell-based, Escherichia coli
Description: What could be the mechanism behind the antagonistic action of this pathway on membrane- versus intracellular-targeting AMPs? Since MlaD is part of a protein complex, it may lead to a loss-of-function effect upon overexpression[41],[42]. To test this, we asked whether overexpression and deletion of mlaD cause similar changes in susceptibility to a representative set of membrane- and intracellular-targeting AMPs.
Minimum inhibitory concentrations (MIC) were determined with a standard serial broth dilution technique with a minor modification. Specifically, instead of a two-fold dilution series, smaller AMP concentration steps were used (typically 1.2-fold) for two reasons. […] Second, gene overexpressions caused typically only small changes in the MICs of AMPs and therefore higher resolution was required. The protocol was as follows. From a stock solution of an AMP, 12-steps serial dilution was prepared in fresh MS medium in 96-well microtiter plates. Each AMP was represented in 11 different concentrations (3 wells per AMP concentration per strain). Three wells contained only medium to check the growth in the absence of AMP. After overnight growth in MS medium supplemented with chloramphenicol, bacterial strains were diluted 20-fold into fresh MS medium and grown until the cell density reached OD600 ~1. Cells were induced by 100 µM of IPTG and incubated for 1 h at 30 °C with continuous shaking at 300 rpm. Following incubation, approximately half-million cells were inoculated into the wells of the 96-well microtiter plate with a 96‐pin replicator. We used three independent replicates for each strain and the corresponding control. Two rows in the 96-well plate contained only MS medium in order to obtain the background OD value of the medium. Plates were incubated at 30 °C with continuous shaking at 300 rpm. After 20–24 h of incubation, OD600 values were measured in a microplate reader (Biotek Synergy 2).
A mlaD knockout strain of E. coli BW25113 carrying a kanamycin resistance cassette in the position of the gene was selected from the KEIO collection. The resistance marker was removed using plasmid-borne (pFT-A) expression of FLP recombinase leading to excision of the kanamycin resistance cassette. Cassette excision was verified by a polymerase chain reaction using the primers mlaD_del_ver_Fw (5′- […]) and mlaD_del_ver_Rev (5′- […]).
Supplementary Figure 13. […] The bacterial susceptibility of the mutant to AMPs was tested by MIC determination. Growth is shown relative to growth in the absence of the corresponding AMP. The blue line represents the mlaD knockout strain and the orange line represents the control strain (wild-type E. coli BW25113). Error bars indicate the standard errors based on three biological replicates. Source data are provided in the Source Data file.

[1] = system: E. coli BW25113 overexpression strains (ASKA plasmids); assay: Minimum inhibitory concentration (MIC), serial broth dilution, single-gene overexpression strains vs empty-vector control; type: cell-based, Escherichia coli; conditions: for Average relative change in MIC: mlaD overexpression strain relative to control (wild-type+empty vector), 3 replicates each, from optical density values of serial dilution plates, AMP in µg ml-1; for Relative MIC: broth dilution, MS medium, 100 µM IPTG, 30 °C, 20-24 h, OD600, 3 replicates
Method in brief: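 E. coli overexpression strains grown in MS medium with chloramphenicol, induced with 100 µM IPTG for 1 h at 30 °C, then about half-million cells inoculated into 12-step AMP dilutions (typically 1.2-fold steps). OD600 read after 20–24 h at 30 °C with shaking; triplicate strains compared with empty-vector control.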

[2] = mlaD deletion strain relative to control (E. coli BW25113), 3 replicates each, from optical density values of serial dilution plates, AMP in µg ml-1
[3] = overexpression strain gadW, MIC of overexpression strain / MIC of empty-plasmid control
[4] = overexpression strain hyfA, MIC of overexpression strain / MIC of empty-plasmid control
[5] = overexpression strain mlaC, MIC of overexpression strain / MIC of empty-plasmid control
[6] = overexpression strain mlaD, MIC of the overexpression strain / MIC of the control strain (wild-type carrying the empty plasmid)
[7] = overexpression strain murA, MIC of overexpression strain / MIC of empty-plasmid control
[8] = overexpression strain mzrA, MIC of overexpression strain / MIC of empty-plasmid control
[9] = overexpression strain rpoH, MIC of overexpression strain / MIC of empty-plasmid control
[10] = overexpression strain nikB, MIC of overexpression strain / MIC of empty-plasmid control

| Sequence | Average relative change in MIC (E. coli BW25113 ΔmlaD; [2]) | Average relative change in MIC [1] | Relative MIC [1, 3] | Relative MIC [1, 4] | Relative MIC ([1]; overexpression strain lptB, MIC of overexpression strain / MIC of empty-plasmid control) | Relative MIC [1, 5] | Relative MIC [1, 6] | Relative MIC [1, 7] | Relative MIC [1, 8] | Relative MIC ([1]; overexpression strain narY, MIC of overexpression strain / MIC of empty-plasmid control) | Relative MIC [1, 9] | Average relative change in MIC (E. coli BW25113 ΔmlaD; mlaD deletion strain vs control E. coli BW25113, average of 3 replicates) | Relative MIC ([1]; overexpression strain cvpA, MIC of overexpression strain / MIC of empty-plasmid control) | Relative MIC [1, 10] | Relative MIC ([1]; overexpression strain ptsN, MIC of overexpression strain / MIC of empty-plasmid control) | Relative MIC ([1]; overexpression strain uhpC, MIC of overexpression strain / MIC of empty-plasmid control) | Relative MIC ([1]; overexpression strain yiaJ, MIC of overexpression strain / MIC of empty-plasmid control) | Relative MIC ([1]; overexpression strain ytjB, MIC of overexpression strain / MIC of empty-plasmid control) |
| --- | --- | --- | --- | --- | --- | --- | --- | --- | --- | --- | --- | --- | --- | --- | --- | --- | --- | --- |
| GIGKFLKKAKKFGKAFVKILKK [PEX, Pexiganan, synthetic Magainin derivative; disrupts cell membrane; cluster C2] | 1.58 | 1.71 | 0.7 | 0.7 | 1.3 | 1.85 | 1.85 | 1.44 | 1 | 0.8 | 1.44 | – | – | – | – | – | – | – |
| ILPWKWPWWPWRR [IND, Indolicidin, antimicrobial peptide from bovine neutrophils; cluster C3] | – | 0.82 | – | >1.2 | – | – | 0.78 | 0.8 | 0.62 | – | 0.64 | 0.71 | 0.76 | 0.76 | 0.76 | 0.8 | 0.8 | 0.8 |
| RWCFRVCYRGICYRKCR [TPII, Tachyplesin II, antimicrobial peptide from Japanese horseshoe crab; disrupts cell membrane; cluster C1] | 1.35 | 1.47 | 1 | – | – | 1 | 1.47 | – | 1.27 | – | – | – | – | 0.8 | – | – | – | – |
